The results in this text go back to patent US9322066B2, “Predictors for cancer treatment” (priority 2011, dated 2016).

The test system of this test is relapsed or refractory, rituximab-naive or -sensitive follicular B-cell NHL. Put plainly: Overall response rate (CR+CRu+PR), Vc-R vs rituximab study, by biomarker. In kind it is in vivo, human. To be noted: Biomarker positive (PSMB1 P11A heterozygote and CD68 Low). The text has this: Non-Hodgkin lymphoma (NHL) encompasses several unique malignant lymphoid disease entities that vary in clinical behavior, morphologic appearance, immunologic, and molecular phenotype. […] A randomized, open-label, active-controlled, multicenter, multinational, prospective study to compare the efficacy and safety of the combination of bortezomib and rituximab (Vc-R) to single-agent rituximab in subjects who have relapsed or refractory, rituximab-naive or -sensitive follicular B-cell NHL was performed.
Subjects were centrally randomized to Treatment Groups A (Vc-R) or B (rituximab) in a 1:1 ratio taking into account the following stratification factors: • Follicular Lymphoma International Prognostic Index (FLIPI) score (low [0 or 1 factor], intermediate [2 factors], high [≧3 factors]); • Prior rituximab therapy (yes, no); • Time since last dose of anti-lymphoma therapy (≦1 year, >1 year); • Region (United States/Canada, European Union, Rest of World). […]
Comparison of the response rates between the treatment groups was conducted using the Fishers Exact Test. Duration of response, time to response, and time to clinical relapse were analyzed descriptively, where appropriate, and the biomarker subset was compared (if appropriate, determined as per the initial analysis) to the overall clinical cohort, by treatment group and overall. […]

On to rituximab, for which the overall response rate was 47.5%.
